Source: US20050202488A1, “Assay for therapies that inhibit expression of the cytosolic Cu/Zn superoxide dismutase (SOD1) gene” (The General Hospital Corporation, priority 2004, published 2005)

Test system: human SOD1 promoter
Assay: SOD1 promoter-EGFP reporter high through-put screening assay in stably transfected PC12 cells
Type: cell-based, rat
Conditions: PC12 stable cell line treated 24 hrs with increasing mitomycin C concentration; FIG. 2
Source text: We have developed a cell-based, fluorescent high through-put screening assay to identify compounds that reduce SOD1 expression using a stable rat pheochromocytoma PC12 cell line with 2.2 kb of human SOD1 promoter sequence driving EGFP expression (FIG. 1).
The human SOD1 promoter was amplified by PCR from a control DNA sample using primers 5′ […] 3′ (SEQ ID NO:3) and 5′ […] 3′ (SEQ ID NO:4). Restriction sites were incorporated into the primers although these were not used for the cloning but to aid transfer into additional vectors in the future. PCR reactions were carried out in a final volume of 40 μl on a thermocycler (Hybaid). PCR reactions contained a final concentration of 3 U Taq polymerase (New England Biolabs, Beverly, Mass.), 150 ng of DNA, 1×PCR buffer, […] of each dNTP, 40 pmoles of forward and reverse primers (MWG-Biotech, High Point, N.C.), 2.5 mM MgCl2, and 5% DMSO. […]
Initial testing of the assay has been carried out using a known inhibitor of SOD1 expression, mitomycin C (Cho C., et al., (1997), The transcriptional repression of the human Cu/Zn superoxide dismutase(sod1) gene by the anticancer drug, mitomycin C(MMC), Biochem Mol Biol Int., 42:949-56). […] The level of EGFP fluorescence was read on a Wallac plate reader (Perkin Elmer, Boston, Mass.) (excitation 485 nm, emission 535 nm). […]

CO[C@@]12[C@H](COC(N)=O)C3=C(C(=O)C(C)=C(N)C3=O)N1C[C@@H]1N[C@@H]12 [mitomycin C]
EGFP fluorescence (relative expression level): progressive decrease in fluorescence
